Measurements reported in US11292803B2, “Bioreducible N-oxide-based probes for imaging of hypoxia” (THE BOARD OF TRUSTEES OF THE UNIVERSITY OF ILLINOIS, priority 2018, dated 2022).

Legend:
[1] = Photophysical characterization (absorbance, emission, extinction coefficient, quantum yield); format: physicochemical; conditions: for ΦF / ε / λabs / λem: measured in CHCl3 (Table 1)
Method: Having established an effective synthetic route, attention was turned to the photophysical characterization of HyP-1 and red-HyP-1 (Table 1). HyP-1 has an absorbance maximum at 670 nm and corresponding emission maximum at 697 nm (FIG. 3a). The extinction coefficient (ε) and quantum yield (ΦF) were measured to be 1.5×10^4 cm^−1 M^−1 and 0.33 respectively. Red-HyP-1, on the other hand, has absorbance and emission maxima at 760 nm and 798 nm, respectively.
4-Aminoacetophenone was purchased from AK Scientific. Ethyl iodide, DIPEA, K2CO3, KOH, Na2SO4 and NH4OAc were purchased from Oakwood Chemicals. Benzaldehyde, BF3×OEt2, BIPY, DPI, DMSO, m-CPBA, nitroreductase and rat liver microsomes were purchased from Sigma Aldrich. Nitromethane was purchased from Alfa Aesar. Anaero-Indicators, AnaeroPacka anaerobic gas generators, acetonitrile, n-BuOH, CH2Cl2, EtOAc and Hexanes were purchased from Fisher Scientific. CDCl3 was purchased from Cambridge Isotopes Laboratory. Agarose LE was purchased from Gold Biotechnology. NADPH was purchased from EMD Millipore. All chemicals were used as purchased without further purification. Fluorinated ethylene propylene (FEP) tubing (wall thickness 0.01″, inner diameters 0.08″ and 0.12″) were purchased from McMaster-Carr. Thin-layer chromatography (TLC) was performed using glass-backed TLC plates coated with silica gel containing an UV254 fluorescent indicator (Macherey-Nagel). Flash chromatography was performed with 230-400 mesh silica gel P60 (SiliCycle Inc). UV-visible spectra were recorded on a Cary 60 spectrometer. Fluorescence spectra were recorded on a QuantaMaster-400 scanning spectrofluorometer using micro fluorescence quartz cuvettes (Science Outlet). NMR spectra were taken using Bruker or Varian 500 MHz spectrometers at 25° C. High-resolution mass spectra were acquired using Waters Q-Tof Ultima ESI and Waters Synapt G2-Si ESI/LC-MS spectrometers. Cellular imaging was performed using an EVOS FL cell imaging system. In vivo Fluorescence imaging was performed using an IVIS Spectrum CT live-animal imaging system (Perkin-Elmer, USA). PA imaging was performed using an Endra Nexus 128 photoacoustic tomography system (Ann Arbor, Mich., USA).

[2] = system: CYP450-rich rat liver microsomes
Method: FIG. 4. […] (a) Representative PA image (770 nm) of reaction mixtures incubated under normoxic or hypoxic conditions for 2 h, then quenched with an equal volume of acetonitrile. Dashed lines indicate positioning of FEP tubes. (b) Change in PA signal (770 nm) produced after 2 h incubation of HyP-1 (10 μM) with rat liver microsomes (RLM) (200 μg/mL) and NADPH (50 μM) in normoxic and hypoxic conditions (n=3). (c) Ratiometric fluorescence turn-on after 2 h incubation of HyP-1 (2 μM) with RLM ([…]) and NADPH (50 μM) in normoxic or hypoxic conditions (n=3). (d) Normalized fluorescent turn-on after 1 h hypoxic incubation of HyP-1 (2 μM) with RLM (100 μg/mL) and NADPH (50 μM) under various conditions. Statistical significance represents a comparison to the hypoxic control (n=6). Results with error bars are represented as mean±SD. **p<0.01, ***p<0.001, ****p<0.0001.
The responsiveness of HyP-1 to hypoxia was first evaluated in vitro via fluorescence by incubating HyP-1 with CYP450-rich rat liver microsomes under atmospheric (normoxic) and oxygen-deprived (hypoxic) conditions. […] The PA response of HyP-1 under identical conditions was evaluated by quenching the reaction mixtures with an equal volume of acetonitrile and transferring the solutions into fluorinated ethylene propylene (FEP) tubes, which were inserted into the centre of a 2 cm thick agarose-based tissue-mimicking phantom.
For hypoxic assays only, cuvettes were sealed with septa, then evacuated and filled with N2 (×3) prior to use. Potassium phosphate buffer (0.1 M, pH 7.4) and NADPH (0.5 mM) were degassed with N2 for 30 minutes. For all assays, phosphate buffer (889 μL) rat liver microsomes (200 μg/mL) and HyP-1 (1 μL, 2 mM in DMSO) were added to the cuvette and pre-incubated at 37° C. for 5 minutes. NADPH (100 μL) was added and incubation continued with fluorescence spectra acquisition occurring at the indicated time points. Spectra were acquired according to the following parameters: λex=672, emission range=685-800 nm and λex=750, emission range=760-900 nm. For BIPY and DPI experiments, the compounds were added from stock solutions (1 M BIPY in DMSO and 50 mM DPI in deionized water) following the 5 minute preincubation, and the buffer volume was adjusted such that the total volume in the cuvette was equal to 1 mL. Deactivated microsomes were prepared by heating in a 45° C. water bath for 30 minutes.

[3] = Photophysical characterization (absorbance, emission, extinction coefficient, quantum yield); format: physicochemical; conditions: Table 2

emission maximum ([2]; authentic solution, as RLM reaction mixture (aqueous buffer)) [nm] | SMILES | absorbance maximum [1] [nm] | decrease in quantum yield on conversion of HyP-1 to red-HyP-1 [1] [fold] | emission maximum [1] [nm] | extinction coefficient (ε) [1] [cm⁻¹ M⁻¹] | increase in extinction coefficient on conversion of HyP-1 to red-HyP-1 [1] [fold] | quantum yield (ΦF) [1] | shift in absorbance on conversion of HyP-1 to red-HyP-1 [1] [nm] | ΦF [1] | ε [1] | λabs [1] [nm] | λem [1] [nm] | conversion by heat-inactivated rat liver microsomes [2] | Φ [3] | ε [3] | λabs [3] [nm]
– | CC[N+]([O-])(CC)c1ccc(-c2cc(-c3ccccc3)c3n2[B-](F)(F)[N+]2=C(c4ccc(OC)cc4)C=C(c4ccccc4)C2=N3)cc1 [HyP-1, 4-(5,5-difluoro-7-(4-methoxyphenyl)-1,9-diphenyl-5H-5λ^4,6λ^4-dipyrrolo[1,2-c:2′,1′-f][1,3,5,2]triazaborinin-3-yl)-N,N-diethylaniline oxide] | 670 | 2.2 | 697 | 15000 | 3.6 | 0.33 | 90 | 0.33 | 1.4 × 10^4 M^−1 cm^1 | 670 | 697 | converted to red-HyP-1 | 0.33 | 1.5 × 10^4 M^−1 · cm^1 | 670
785 | CCN(CC)c1ccc(-c2cc(-c3ccccc3)c3n2[B-](F)(F)[N+]2=C(c4ccc(OC)cc4)C=C(c4ccccc4)C2=N3)cc1 [Red-HyP-1, 4-(5,5-difluoro-7-(4-methoxyphenyl)-1,9-diphenyl-5H-5λ^4,6λ^4-dipyrrolo[1,2-c:2′,1′-f][1,3,5,2]triazaborinin-3-yl)-N,N-diethylaniline] | 760 | – | 798 | 54000 | – | 0.15 | – | 0.15 | 5.4 × 10^4 M^−1 cm^1 | 760 | 798 | – | 0.11 | 5.4 × 10^4 M^−1 · cm^1 | 760
